Experimental data published in ChEMBL document CHEMBL1150710, “Cytotoxic steroids of Gelsemium sempervirens” (1987).
Values after ≈ are worked out from the molar mass of the structure shown. Active and inactive are the calls of the source. The calls are words filed in the database; no cut-off is given here.

What was measured:
KB = assay: Cytotoxicity against human KB cells; assay type: functional; settings: for EC50: read-out: ED50 (the source's name)
P388 = assay: Cytotoxicity against mouse P388 cells; assay type: functional; settings: for EC50: read-out: ED50 (the source's name)

| SMILES | EC50 (KB) [µg/mL] | EC50 (P388) [µg/mL] | ED50 (KB) | ED50 (P388) |
| --- | --- | --- | --- | --- |
| CC(=O)C1=CC[C@H]2[C@@H]3CCC4=CC(=O)CC[C@]4(C)[C@H]3C[C@@H](O)[C@]12C | 2 (≈ 6.09 µM) | 2.8 (≈ 8.52 µM) |  |  |
| C/C=C1\CN(C)[C@H]2C[C@@]3(C(=O)N(OC)c4ccccc43)[C@H]3C[C@@H]1[C@@H]2CO3 |  |  | inactive | inactive |
| C=C[C@]12CN(C)[C@@H]3[C@H]4CO[C@H](C[C@H]41)[C@]1(C(=O)Nc4ccccc41)[C@@H]32 |  |  | inactive | inactive |
| C/C=C1\CN2[C@H]3C[C@H]1[C@H](CO)[C@@H]2Cc1c3[nH]c2ccccc12 |  |  | inactive | inactive |
| C[C@H]1[C@H](C)CC[C@]2(C(=O)O)CC[C@]3(C)C(=CC[C@@H]4[C@@]5(C)CC[C@H](O)C(C)(C)[C@@H]5CC[C@]43C)[C@H]12 |  |  | inactive | inactive |
| C=C[C@]12C(=O)N(C)[C@@H]3[C@H]4CO[C@H](C[C@H]41)[C@]1(C(=O)Nc4ccccc41)[C@@H]32 |  |  | inactive | inactive |
| CC(=O)C1=CC[C@H]2[C@@H]3CC[C@H]4CC(=O)CC[C@]4(C)[C@H]3C[C@@H](O)[C@]12C | 0.7 (≈ 2.12 µM) | 0.9 (≈ 2.72 µM) |  |  |
| CC[C@H]1N[C@H]2C[C@@]3(C(=O)N(OC)c4ccccc43)[C@@H]3OC[C@H]2[C@H]1[C@@H]3O |  |  | inactive | inactive |
| CC[C@H]1N[C@H]2C[C@@]3(C(=O)N(OC)c4ccccc43)[C@H]3C[C@@H]1[C@@H]2CO3 |  |  | inactive | inactive |
| CCC1=N[C@H]2C[C@@]3(C(=O)N(OC)c4ccccc43)[C@@H]3OC[C@H]2[C@H]1[C@@H]3O |  |  | inactive | inactive |
| COc1cc2ccc(=O)oc2cc1O |  |  | inactive | inactive |
| CCC1=N[C@H]2C[C@@]3(C(=O)N(OC)c4ccccc43)[C@H]3C[C@@H]1[C@@H]2CO3 |  |  | inactive | inactive |
| C=C[C@]12CN(C)[C@@H]3[C@H]4CO[C@H](C[C@H]41)[C@]1(C(=O)N(OC)c4ccccc41)[C@@H]32 |  |  | inactive | inactive |
